Patent publication US5703092A, “Hydroxamic acid compounds as metalloprotease and TNF inhibitors” (The DuPont Merck Pharmaceutical Company, priority 1996, dated 1997)

Tests used:
[1] = Ex Vivo Assay for Bioavailability of MMP-3 Inhibitors (plasma level after dosing); assay type: in vivo; settings: rat, po; rats, dosed orally at 100 mg/kg; plasma level read via MMP-3 inhibition against a spiked plasma standard curve
Experimental: Ex Vivo Assay for Bioavailability of MMP-3 Inhibitors
Blood was collected by cardiac puncture from rats at different times after dosing I.V., I.P., or P.O. with compound in order to determine the levels of inhibitor present. Plasma was extracted with 10% TCA in 95% methanol, and placed on ice for 10 minutes. The plasma was then centrifuged for 15 minutes at 14,000 rpm in an Eppendorf microcentrifuge. The supernatant was removed, recentrifuged, and the resulting supernatant was diluted 1:10 in 50 mM tricine, pH 8.5. The pH of the sample was adjusted to 7.5, and then assayed in the MMP-3 substance P fluorescent enzymatic assay. Plasma from naive rats was extracted by the same method and used as a negative control. This plasma was also used to prepare a spiked plasma curve of the compound of interest. Known concentrations of the compound were added to control plasma, the plasma was extracted by the same method, and then assayed in the MMP-3 enzymatic assay. A standard curve was prepared that related percent inhbition in the MMP-3 assay to the concentration of drug added in the spiked samples. Based on the percent inhibition in the presence of plasma from dosed rats, the concentration of compound was determined using the standard curve.

[2] = tested on: truncated MMP-3; assay: Bisacetylated Substance P/MMP-3 Fluorescent Assay; assay type: biochemical; settings: bisacetylated substrate with MMP-3
truncated MMP-3, sequence (P08254 100-272 limits assumed): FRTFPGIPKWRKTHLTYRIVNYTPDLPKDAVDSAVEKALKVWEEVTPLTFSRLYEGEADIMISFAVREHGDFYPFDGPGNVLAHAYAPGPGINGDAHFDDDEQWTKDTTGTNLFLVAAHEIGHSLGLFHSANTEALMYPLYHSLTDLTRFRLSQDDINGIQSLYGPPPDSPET
From the text: Bisacetylated Substance P/MMP-3 Fluorescent Assay
A high capacity enzymatic assay was developed to detect potential inhibitors of MMP-3. The assay uses a derivative of a peptide substrate, substance P (Arg-Pro-Lys-Pro-Gln-Gln-Phe-Phe-Gly-Leu-Met), which is cleaved by MMP-3 exclusively at the glutamine-phenylalanine bond. In order to adapt this assay for high throughput screening, we have developed a fluorimetric method of product detection. The production of the hydrolysis product, substance P 7-11, is measured by reaction with fluorescamine, a fluorogenic compound which reacts with the primary amine of this fragment. The substance P substrate is bisacetylated to block the primary amines of the intact substrate. Thus, the resulting fluorescence represents generation of product (7-11 peptide) formed upon cleavage by MMP-3, and is quantitated using a standard curve prepared with known concentrations of 7-11 peptide.
To evaluate inhibition of MMP-3, compounds were prepared at a concentration of 10 mM in 100% methanol, and then further diluted to a 20× molar stock. Five microliters of each drug stock was added to the assay in the presence of 20 nM truncated MMP-3 in 67.5 mM tricine (pH 7.5), 10 mM CaCl2, 40 mM NaCl, and 0.005% Brij 35 in a final volume of 100 microliters. Bisacetylated substance P ([…]) was added, and the assay was run for 1 hour at 25° C. […]

| Compound | Cmax [1] [nM] | Km [2] [µM] | Vmax [2] [nmoles 7-11 peptide/min] |
| --- | --- | --- | --- |
| CC(C)C[C@@H](C(=O)N[C@H](c1nc2cc(Cl)ccc2[nH]1)C(C)(C)C)[C@H](O)C(=O)NO [Example 86, N-[1(S)-(5-chloro-2-benzimidazolyl)-2,2,2-trimethylethyl]-[3-(N-hydroxyaminocarbonyl)-3(S)-hydroxy-2(R)-isobutyl]propanamide] | 960 | – | – |
| bisacetylated substrate: bisacetylated derivative of peptide substrate substance P (Arg-Pro-Lys-Pro-Gln-Gln-Phe-Phe-Gly-Leu-Met), cleaved by MMP-3 | – | 769 ± 52 | 0.090±0.003 |
